From PubChem BioAssay AID179 (DTP/NCI, 2004)
Calls of active or inactive are those of the source.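 How the source made its calls: active means compounds giving half or more protection of infected cells from virus-caused growth loss, again on retest; inactive means the rest.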 Where a SMILES comes first, the peptide text is derived from it.

Test system: CEM cells HIV-1 protection, formazan growth assay
Assay: NCI AIDS Antiviral Assay
Settings: for IC50: measured here: growth of uninfected CEM cells
Outline: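 Steps: treat uninfected and HIV-1-infected human CEM cells at five drug levels; quantify growth by soluble formazan; retest any compound reaching 50% protection; classify actives from the retest.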

| Compound | EC50 [µM] | IC50 [µM] | outcome |
| --- | --- | --- | --- |
| CCOC(=O)C12CCCC1(O)N(NC(=O)c1cccc(Cl)c1)C(C)=C2C(=O)OC (stereo not given) | > 427 | 123 |  |
| O=C(O)CNS(=O)(=O)c1ccc(NC(=O)c2ccccc2[N+](=O)[O-])cc1 |  |  | inactive |
| CN(C)c1ccc(/C=C2\Oc3ccccc3C2=O)cc1 | > 200 | > 200 |  |
| Cc1ccc(Nc2nc(NNC(=O)Cc3ccccc3)nc(NNC(=O)c3ccncc3)n2)cc1 | > 50.1 | > 50.1 |  |
| CCC(CCl)NC(=O)Nc1ccc(S(=O)(=O)c2ccc([N+](=O)[O-])cc2)cc1 (stereo not given) | > 11 | 8.71 |  |
| COC(=O)c1ccc(CCc2cc(O)c(Br)cc2O)cc1 | > 200 | 10 |  |
| CCOC(=O)/C(F)=C/c1ccc(F)cc1 | > 123 | > 123 |  |
| CN(C)S(=O)(=O)C(c1ccccc1)C1(O)CCCCC1 (stereo not given) | > 437 | > 437 |  |
| Cc1ccc(C2=Nn3c(nc4sc(-c5ccccc5)cc4c3=O)SC2)cc1 | > 100 | > 100 |  |
| CNC(=O)CNC(=O)N(C[C@@H]1CCCN1C(=O)[C@H](CC(C)C)NC(=O)OC(C)(C)C)C(C)C | > 200 | > 200 |  |
| Nc1ccc2ncc(NCc3ccc(F)cc3)nc2c1 | > 135 | 69.2 |  |
| N#Cc1c(=O)c2ccccc2n2c1[nH]c1ccccc12 | > 200 | 77.6 |  |
| CCOC(=O)C(NC(=O)c1ccccc1)(Nc1ccc(S(=O)(=O)Nc2cc(C)nc(C)n2)cc1)C(F)(F)F (stereo not given) | > 200 | > 200 |  |
| NC(N)=NS(=O)(=O)c1ccc(N=c2c3ccccc3n(-c3ccccc3)c3ccccc23)cc1 |  |  | inactive |
| CCOC(OCC)c1ccc(-n2c(N)c(C#N)cnc2=S)c2c1OC2=NC=C(C#N)C#N | > 151 | > 151 |  |
| CC1=C(C(=O)CC(=O)C(=O)Nc2cccc(Cl)c2C)Sc2ccccc2N1 | > 64.6 | > 64.6 |  |
| CC(=O)OCc1ncccc1C(OC(C)=O)OC(C)=O | > 891 | > 891 |  |
| C=CCOc1ccc(C2C(C(=O)OC)C(=O)CC(O)(c3ccccc3)C2C(=O)OC)cc1OC (stereo not given) | > 100 | > 100 |  |
| O=C(O)c1ccccc1-c1c2ccc(=O)c(O)c-2oc2c(O)c(O)ccc12 | > 25.1 | 8.71 |  |
| CC1(C)CN=C(c2ccc3ccccc3c2O)N1 | > 200 | > 200 |  |
| N/N=C(\C(=O)Nc1ccc(Cl)cc1Cl)C(c1cnc2ccccc2n1)[N+](=O)[O-] (stereo not given) | > 120 | > 120 |  |
| CO/C(=C/C(=O)c1ccccc1)C(=O)c1ccccc1 | > 115 | 61.7 |  |

| Compound | EC50 [µM] | IC50 [µM] | outcome |
| --- | --- | --- | --- |
| CC(=O)O[C@]12CCCC1C1(O)C(O)CCCC12 (stereo not given in full) | > 200 | > 200 |  |
| COC(=O)C12C3C4C5C3(C#N)C1C5(C(=O)OC)C42C(=O)N(C(C)C)C(C)C (stereo not given) | > 97.7 | > 97.7 |  |
| CCC(C)C(NC(=O)C(CCCN=C(N)N)NC(=O)C(CC(=O)O)NC(=O)C(Cc1ccc(O)cc1)NC(=O)C(N)CC(C)C)C(=O)NC(C(=O)NC(CC(C)C)C(=O)NC(CCCN=C(N)N)C(=O)NC(Cc1ccc(O)cc1)C(=O)O)C(C)CC (stereo not given) (H-LYDRIILRY-OH; configuration not given here) | > 10.2 | > 10.2 |  |
| COc1cc(C(c2ccccc2)N2C(=O)CC[C@H]2C(=O)O)cc(OC)c1OC (stereo not given in full) | > 200 | > 200 |  |
| Cc1ccc(S(=O)(=O)OCCOC(Cc2ccccc2)n2cc(C)c(=O)[nH]c2=O)cc1 (stereo not given) | > 200 | > 200 |  |
| O=C1Sc2ccccc2C(=O)N2CCSC12 (stereo not given) | 126 | > 200 |  |
| COC(=O)C1=C(\N2CCOCC2)CCCCC/C=C\1C(=O)OC | > 776 | 513 |  |
| COc1cc(CN=c2nc(N(C)C)ss2)cc(OC)c1OC | > 100 | 6.92 |  |
| CN1C(=O)c2ccccc2C(C(=O)O)C1c1ccc2c(c1)OCO2 (stereo not given) | > 151 | > 151 |  |
| COC12OCCN(C)C1=CC(=O)C1=NNC(C)C12 (stereo not given) |  |  | inactive |
| O=C1NC(O)n2c(=O)[nH]c(=O)n21 (stereo not given) |  |  | inactive |
| CC1CCC2(CO)C(CO)=CCCC2[C@@]1(C)CC/C(=C/CO)CO (stereo not given in full) |  |  | inactive |
| C[n+]1c(-c2ccc(/C=N/NC(=O)c3cc(O)c(C(=O)N/N=C/c4ccc(-c5cn6ccccc6[n+]5C)cc4)cc3O)cc2)cn2ccccc21 | > 6.31 | > 6.31 |  |
| O=c1ccn(C2SC(CO)CC2F)c(=O)[nH]1 (stereo not given) | > 25.1 | > 25.1 |  |
| COC(=O)C1(C)CC(c2ccccc2)=NC1c1ccccc1 (stereo not given) | > 123 | > 123 |  |
| CC1=C2C(=CC(C)(CO)C2O)C(=O)C(C)(O)C12CC2 (stereo not given) |  |  | inactive |
| O=C1/C(=C/c2ccc(F)cc2)Cc2ccccc21 | > 30.2 | > 30.2 |  |
| Cc1cc(N=O)cc(Cl)c1O | > 200 | 10.5 |  |
| CCCN(CCC)C(=O)c1c(N2CCN(C)CC2)c2cccnc2n2c(C)cnc12 | > 200 | > 200 |  |
| CC(=O)NC(CCC(=O)c1ccc(Cl)cc1)(C(=O)O)C(=O)O | > 200 | > 200 |  |
| O=C(Nc1ccc(OCC2=NCCN2)cc1)c1ccc(C(=O)Nc2ccc(OCC3=NCCN3)cc2)cc1 | > 200 | > 200 |  |
